This data set has as its system mouse cortical neuron cultures.
Where [1] appears, read: 10 µM chemical, mouse cortical neuron cultures.

Where two headings read alike, the source gives them in different places.

In the case of `Oc1ccc(C(c2ccc(O)cc2)C(Cl)(Cl)Cl)cc1`, the “% Dead cells (vehicle subtracted)” value amounted to 1.986%. The same measure, in the same setting: in the case of `O=C(O)CCCOc1ccc(Cl)cc1Cl` it was -0.3394%; in that of `CCCOC(=O)c1ccc(C(=O)OCCC)nc1`, -2.999%. On to `CSC(=O)c1cccc2nnsc12`, for which the “% Dead cells (vehicle subtracted)” value was -0.1497%.

`Clc1nc(Cl)nc(Nc2ccccc2Cl)n1`: the “% Dead cells (vehicle subtracted)” value is -1.572%.

On to `CCNc1nc(N)nc(Cl)n1`, for which the “% Dead cells (vehicle subtracted)” value was found to be 1.813%. On the same count and under the same terms, in the case of `CC(C)(c1ccc(O)cc1)c1ccc(O)cc1.CC(C)(c1ccc(O)cc1)c1ccc(O)cc1` it was 0.9627%; in that of `N#Cc1cc(Br)c(O)c(Br)c1`, -1.631%. Turning to `CC1=C(C(=O)Nc2ccccc2)SCCO1`, the “% Dead cells (vehicle subtracted)” value was 3.189%. As to `O=C(O)c1nc(Cl)ccc1Cl`, the “% Dead cells (vehicle subtracted)” value is -1.907%. `CC(Oc1ccc(Cl)cc1Cl)C(=O)O` (stereo not drawn): the “% Dead cells (vehicle subtracted)” value is reported as -0.3394%. Consider `CCCCOC(=O)[C@@H](C)Oc1ccc(Oc2ccc(C(F)(F)F)cn2)cc1`, for which the “% Dead cells (vehicle subtracted)” value worked out at 0.5693%.

In the case of `Cc1cnc(C2=NC(C)(C(C)C)C(=O)N2)c(C(=O)O)c1` (stereo not drawn), the “% Dead cells (vehicle subtracted)” value is -0.5785%. With `CCCCC(CC)CN1C(=O)C2C3C=CC(C3)C2C1=O` (stereo not drawn), the “% Dead cells (vehicle subtracted)” value is listed as -0.09059%. Same read-out and setting: in the case of `CN=C=S` it was 3.139%; in that of `COC(=O)C=C(C)OP(=O)(OC)OC`, -2.439%; in that of `CCCCOC(=O)c1ccccc1C(=O)O`, 5.2539%.

On to `CNC(=O)/C=C(\C)OP(=O)(OC)OC`, for which the “% Dead cells (vehicle subtracted)” value was -1.862%.

Consider `O=C(O)C(F)(F)C(F)(F)C(F)(F)C(F)(F)C(F)(F)C(F)(F)C(F)(F)F`, for which the “% Dead cells (vehicle subtracted)” value is reported as -2.482%. For `CCCCC(CC)COC(=O)c1ccccc1C(=O)O` (stereo not drawn), the “% Dead cells (vehicle subtracted)” value under setting [1] was -0.8176%. On to `COc1nc(NC(C)C)nc(NC(C)C)n1`, for which the “% Dead cells (vehicle subtracted)” value is -1.14%. For `CC(C)Nc1nc(Cl)nc(NC(C)C)n1`, the “% Dead cells (vehicle subtracted)” value is listed as 0.5652%. `CC1=NNC(=O)N(/N=C/c2cccnc2)C1`: the “% Dead cells (vehicle subtracted)” value is given as -2.3223%. Still for that read-out and setting: in the case of `N#CSCSc1nc2ccccc2s1` it was -1.603%; in that of `Cc1c(COC(=O)[C@@H]2[C@H](/C=C(\Cl)C(F)(F)F)C2(C)C)cccc1-c1ccccc1` (racemic) [Bifenthrin], 0.2358%; in that of `Cc1ccccc1CO[C@@H]1C[C@@]2(C(C)C)CC[C@]1(C)O2` (racemic) [Cinmethylin], -0.5547%.

Consider `CC(C)(C)[C@@H](O)[C@@H](Cc1ccc(Cl)cc1)n1cncn1` (racemic) [Paclobutrazol], for which the “% Dead cells (vehicle subtracted)” value (mouse, 24 h, 10 µM) is recorded as -2.562%. `COP(=O)(NC(C)=O)SC` (stereo not drawn) [Acephate]: the “% Dead cells (vehicle subtracted)” value was -1.8111%. For the compound `C/C(=N\C#N)N(C)Cc1ccc(Cl)nc1` [Acetamiprid], the “% Dead cells (vehicle subtracted)” value was 2.983%. Take `CCOCN(C(=O)CCl)c1c(C)cccc1CC` [Acetochlor]: the “% Dead cells (vehicle subtracted)” value (mouse, 24 h, 10 µM) worked out at 2.3535%. `O=C(O)c1cc(Oc2ccc(C(F)(F)F)cc2Cl)ccc1[N+](=O)[O-]` [Acifluorfen]: the “% Dead cells (vehicle subtracted)” value is reported as 3.873%.

Regarding `CCc1cccc(CC)c1N(COC)C(=O)CCl` [Alachlor], the “% Dead cells (vehicle subtracted)” value stood at 3.545%.

For the compound `CNC(=O)O/N=C/C(C)(C)SC` [Aldicarb], the “% Dead cells (vehicle subtracted)” value is -0.4371%. For the compound `CCNc1nc(NC(C)C)nc(SC)n1` [Ametryn], where the note is “mouse, 24 h, 10 µM”, the “% Dead cells (vehicle subtracted)” value turned out to be 0.09019%. Turning to `Cc1ccc(/N=C/N(C)/C=N/c2ccc(C)cc2C)c(C)c1` [Amitraz], the “% Dead cells (vehicle subtracted)” value is listed as 0.3334%. With `COC(=O)NS(=O)(=O)c1ccc(N)cc1` [Asulam], the “% Dead cells (vehicle subtracted)” value (mouse, 24 h, 10 µM) is on record as 1.255%. `COP(=O)(OC)SCn1c(=O)oc2cc(Cl)cnc21` [Azamethiphos]: the “% Dead cells (vehicle subtracted)” value was -0.5762%. On to `COP(=S)(OC)SCn1nnc2ccccc2c1=O` [Azinphos-methyl], for which the “% Dead cells (vehicle subtracted)” value is on record as -0.9211%.

Regarding `CNC(=O)Oc1cccc2c1OC(C)(C)O2` [Bendiocarb], the “% Dead cells (vehicle subtracted)” value is reported as 9.256%. As for `CCCCN(CC)c1c([N+](=O)[O-])cc(C(F)(F)F)cc1[N+](=O)[O-]` [Benfluralin [Benefin]], the “% Dead cells (vehicle subtracted)” value is given as -1.412%. For `CCCCNC(=O)n1c(NC(=O)OC)nc2ccccc21` [Benomyl], the “% Dead cells (vehicle subtracted)” value (mouse, 24 h, 10 µM) amounted to 1.032%.

For the compound `COC(=O)c1ccccc1CS(=O)(=O)NC(=O)Nc1nc(OC)cc(OC)n1` [Bensulfuron-methyl], the “% Dead cells (vehicle subtracted)” value (mouse, 24 h, 10 µM) was -2.606%.

Turning to `CC(C)N1C(=O)c2ccccc2NS1(=O)=O` [Bentazone], the “% Dead cells (vehicle subtracted)” value is -0.5905%. For the compound `COc1ccc(-c2ccccc2)cc1NNC(=O)OC(C)C` [Bifenazate], the “% Dead cells (vehicle subtracted)” value (mouse, 24 h, 10 µM) worked out at 0.1333%. As to `O=C(Nc1ccccc1-c1ccc(Cl)cc1)c1cccnc1Cl` [Boscalid], under “mouse, 24 h, 10 µM”, the “% Dead cells (vehicle subtracted)” value is -4.045%. Consider `CCC(C)n1c(=O)[nH]c(C)c(Br)c1=O` (stereo not drawn) [Bromacil], for which the “% Dead cells (vehicle subtracted)” value worked out at 5.5524%. Regarding `CC(C)N1C(=O)N(c2ccccc2)CS/C1=N\C(C)(C)C` [Buprofezin], the “% Dead cells (vehicle subtracted)” value (mouse, 24 h, 10 µM) is on record as -1.5902%.

As to `CCCCOCN(C(=O)CCl)c1c(CC)cccc1CC` [Butachlor], the “% Dead cells (vehicle subtracted)” value (mouse, 24 h, 10 µM) came out at 0.2625%. Turning to `C=CCOC(=O)C(C)(C)OC(=O)c1cc(-n2c(=O)cc(C(F)(F)F)n(C)c2=O)ccc1Cl` [Butafenacil], the “% Dead cells (vehicle subtracted)” value (mouse, 24 h, 10 µM) is listed as -4.681%. For `CCC(C)Nc1c([N+](=O)[O-])cc(C(C)(C)C)cc1[N+](=O)[O-]` (stereo not drawn) [Butralin], for the setting “mouse, 24 h, 10 µM”, the “% Dead cells (vehicle subtracted)” value is reported as 4.6194%. With `CCSC(=O)N(CC(C)C)CC(C)C` [Butylate], under setting [1], the “% Dead cells (vehicle subtracted)” value turned out to be 1.861%. Take `O=C1C2CC=CCC2C(=O)N1SC(Cl)(Cl)Cl` (stereo not drawn) [Captan]: the “% Dead cells (vehicle subtracted)” value is 2.374%. In the case of `CCOC(=O)C(Cl)Cc1cc(-n2nc(C)n(C(F)F)c2=O)c(F)cc1Cl` (stereo not drawn) [Carfentrazone-ethyl], the “% Dead cells (vehicle subtracted)” value stood at 9.785%.

As to `CCOP(=S)(OCC)OC(Cl)C(Cl)(Cl)Cl` (stereo not drawn) [Chlorethoxyfos], the “% Dead cells (vehicle subtracted)” value came to 0.5415%. In the case of `COc1cc(Cl)c(OC)cc1Cl` [Chloroneb], the “% Dead cells (vehicle subtracted)” value is -0.9422%.

With `CC(C)OC(=O)Nc1cccc(Cl)c1` [Chlorpropham], the “% Dead cells (vehicle subtracted)” value (mouse, 24 h, 10 µM) is given as -1.179%.

In the case of `COP(=S)(OC)Oc1nc(Cl)c(Cl)cc1Cl` [Chlorpyrifos-methyl], the “% Dead cells (vehicle subtracted)” value is recorded as -0.3201%. As for `C#CCOC(=O)[C@@H](C)Oc1ccc(Oc2ncc(Cl)cc2F)cc1` [Clodinafop-propargyl], the “% Dead cells (vehicle subtracted)” value (mouse, 24 h, 10 µM) is recorded as -2.625%. For `Clc1ccccc1-c1nnc(-c2ccccc2Cl)nn1` [Clofentezine], the “% Dead cells (vehicle subtracted)” value is 0.4977%. Take `CC1(C)CON(Cc2ccccc2Cl)C1=O` [Clomazone]: the “% Dead cells (vehicle subtracted)” value is reported as -3.452%. Turning to `CC(Oc1cccc(Cl)c1)C(=O)O` (stereo not drawn) [Cloprop], the “% Dead cells (vehicle subtracted)” value was -3.007%. As for `NCCO.O=C(O)c1nc(Cl)ccc1Cl` [Clopyralid-olamine], the “% Dead cells (vehicle subtracted)” value is listed as 0.5713%. For `Oc1ccc(Cl)cc1Cc1ccccc1` [Clorophene], the “% Dead cells (vehicle subtracted)” value was found to be 2.359%. The same measure, in the same setting: in the case of `CN/C(=N\[N+](=O)[O-])NCc1cnc(Cl)s1` [Clothianidin] it was -2.188%. On the same count and under the same terms, for `CCOP(=S)(OCC)Oc1ccc2c(C)c(Cl)c(=O)oc2c1` [Coumaphos] the value was 0.01959%.

With `N#CN` [Cyanamide], the “% Dead cells (vehicle subtracted)” value came out at 0.2955%. In the case of `CCNc1nc(Cl)nc(NC(C)(C)C#N)n1` [Cyanazine], the “% Dead cells (vehicle subtracted)” value is listed as 0.5036%. For the compound `Cc1ccc(-c2c(Cl)nc(C#N)n2S(=O)(=O)N(C)C)cc1` [Cyazofamid], under “mouse, 24 h, 10 µM”, the “% Dead cells (vehicle subtracted)” value is given as -1.678%. Consider `O=C(O)C1(C(=O)Nc2ccc(Cl)cc2Cl)CC1` [Cyclanilide], for which the “% Dead cells (vehicle subtracted)” value is given as 0.6928%. Take `CCSC(=O)N(CC)C1CCCCC1` [Cycloate]: under “mouse, 24 h, 10 µM”, the “% Dead cells (vehicle subtracted)” value is on record as 2.452%.

For `CC1(C)C(C=C(Cl)Cl)C1C(=O)OC(C#N)c1ccc(F)c(Oc2ccccc2)c1` (stereo not drawn) [Cyfluthrin (Baythroid)], the “% Dead cells (vehicle subtracted)” value is -3.677%. For `CCCCOC(=O)[C@@H](C)Oc1ccc(Oc2ccc(C#N)cc2F)cc1` [Cyhalofop-butyl], the “% Dead cells (vehicle subtracted)” value came to 0.4476%. Same read-out and setting: in the case of `CCNC(=O)NC(=O)/C(C#N)=N/OC` [Cymoxanil] it was 3.586%. As for `CC1(C)C(C=C(Cl)Cl)C1C(=O)OC(C#N)c1cccc(Oc2ccccc2)c1` (stereo not drawn) [Cypermethrin], the “% Dead cells (vehicle subtracted)” value (mouse, 24 h, 10 µM) was -3.377%. Regarding `CC(C1CC1)C(O)(Cn1cncn1)c1ccc(Cl)cc1` (stereo not drawn) [Cyproconazole], the “% Dead cells (vehicle subtracted)” value (mouse, 24 h, 0.1 µM) came out at 3.058%; the “% Dead cells (vehicle subtracted)” value (mouse, 24 h, 1 µM) worked out at 5.165%; the “% Dead cells (vehicle subtracted)” value (mouse, 24 h, 10 µM) is recorded as 6.321%. Consider `Cc1cc(C2CC2)nc(Nc2ccccc2)n1` [Cyprodinil], for which the “% Dead cells (vehicle subtracted)” value (mouse, 24 h, 10 µM) is on record as -6.385%.

Turning to `Nc1nc(N)nc(NC2CC2)n1` [Cyromazine], the “% Dead cells (vehicle subtracted)” value (mouse, 24 h, 10 µM) is -4.3436%. `CN(C)NC(=O)CCC(=O)O` [Daminozide]: the “% Dead cells (vehicle subtracted)” value was -0.7321%. Same read-out and setting: for `CCOP(=S)(OCC)Oc1cc(C)nc(C(C)C)n1` [Diazinon] the value was 0.1738%; for `CCOP(=O)(OCC)Oc1cc(C)nc(C(C)C)n1` [Diazoxon], -0.938%. For the compound `CCCCOC(=O)c1ccccc1C(=O)OCCCC` [Dibutyl phthalate], the “% Dead cells (vehicle subtracted)” value (mouse, 24 h, 10 µM) was -2.722%. For the compound `N#Cc1c(Cl)cccc1Cl` [Dichlobenil], for the setting “mouse, 24 h, 10 µM”, the “% Dead cells (vehicle subtracted)” value was 8.856%. Regarding `COP(=O)(OC)OC=C(Cl)Cl` [Dichlorvos], the “% Dead cells (vehicle subtracted)” value was determined as 0.4159%. For the compound `COC(=O)C(C)Oc1ccc(Oc2ccc(Cl)cc2Cl)cc1` (stereo not drawn) [Diclofop-methyl], the “% Dead cells (vehicle subtracted)” value is -2.902%. Turning to `Nc1c(Cl)cc([N+](=O)[O-])cc1Cl` [Dicloran], the “% Dead cells (vehicle subtracted)” value is -0.1169%.

The record behind these values is paper PMC4821887, “Identification of chemicals that mimic transcriptional changes associated with autism, brain aging and neurodegeneration” (Nature Communications, 2016).
